According to patent US11802120B2, “Fused cyclic urea derivatives as CRHR2 antagonist” (RaQualia Pharma Inc., priority 2018, dated 2023):

What follows are compounds tested against T1, human CRHR2-alpha (Homo sapiens, UniProt Q13324) (assay: cAMP functional assay for human CRHR2 (LANCE Ultra cAMP, TR-FRET)). Conditions: CHO-K1 cells expressing human CRHR2-alpha, agonist human urocortin2 at EC80, cAMP; read-out: IC50 against CRHR2.
T1 sequence (Q13324 1-411): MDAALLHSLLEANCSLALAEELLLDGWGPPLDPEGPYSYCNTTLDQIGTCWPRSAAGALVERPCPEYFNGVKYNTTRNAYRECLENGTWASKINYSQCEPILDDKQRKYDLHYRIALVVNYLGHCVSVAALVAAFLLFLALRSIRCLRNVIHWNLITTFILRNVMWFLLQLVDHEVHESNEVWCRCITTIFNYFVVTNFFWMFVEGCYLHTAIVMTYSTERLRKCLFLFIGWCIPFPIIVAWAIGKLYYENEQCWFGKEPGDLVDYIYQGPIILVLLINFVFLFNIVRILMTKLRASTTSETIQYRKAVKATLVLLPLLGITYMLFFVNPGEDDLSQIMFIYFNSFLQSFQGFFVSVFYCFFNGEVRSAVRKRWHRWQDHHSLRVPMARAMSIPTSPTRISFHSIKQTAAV
Format: cell-based
Summary of the method: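 Antagonism measured in CHO-K1 cells stably expressing the receptor, serum-starved 7 h then cryopreserved. Thawed cells in HBSS buffer with 0.1% BSA, 0.5 mM IBMX, 5 mM Hepes pH 7.4 were preincubated with compound 30 min at 25° C, then stimulated 30 min with EC80 agonist: urocortin2 for CRHR2, CRF for CRHR1.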

IC50, < 300 nM:
O=C(N[C@H]1CC[C@H](Cn2c(=O)n(-c3ccc(N[C@@H]4CCOC4)nc3)c3ccccc32)CC1)c1cc(Cl)cnc1C(F)(F)F [Example 300, 5-chloro-N-((1R,4r)-4-((2-oxo-3-(6-(((R)-tetrahydro-furan-3-yl)amino)pyridin-3-yl)-2,3-dihydro-1H-benzo [d]imidazol-1-yl)methyl)cyclohexyl)-2-(trifluoro-methyl)nicotinamide]
Cc1ccc(C(F)(F)F)c(C(=O)N[C@H]2CC[C@H](Cn3c(=O)n(-c4ccc(C)nc4)c4ccccc43)CC2)c1 [Example 268, 5-methyl-N-((1r,4r)-4-((3-(6-methylpyridin-3-yl)-2-oxo-2,3-dihydro-1H-benzo[d]imidazol-1-yl)methyl)cyclohexyl)-2-(trifluoromethyl)benzamide]
Cn1cnc2cc(-n3c(=O)n(C[C@H]4CC[C@H](NC(=O)c5cc(Cl)cnc5C(F)(F)F)CC4)c4ccccc43)ccc21 [Example 326, 5-chloro-N-((1r,4r)-4-((1′-methyl-2-oxo-1′H-[1,5′-bibenzo[d]imidazol]-3(2H)-yl)methyl)cyclohexyl)-2-(trifluoromethyl)nicotinamide]
Cc1ncc(Cl)cc1C(=O)N[C@H]1CC[C@H](Cn2c(=O)n(-c3ccc(C(=O)NC4COC4)cc3)c3ccccc32)CC1 [Example 130, 5-chloro-2-methyl-N-((1r,4r)-4-((3-(4-(oxetan-3-ylcarbamoyl)phenyl)-2-oxo-2,3-dihydro-1H-benzo[d]imidazol-1-yl)methyl)cyclohexyl)nicotinamide]
CNc1ccc(-n2c(=O)n(C[C@H]3CC[C@H](NC(=O)c4cc(Cl)cnc4C(F)(F)F)CC3)c3ccccc32)nc1 [Example 692, 5-chloro-N-((1r,4r)-4-((3-(5-(methylamino)pyridin-2-yl)-2-oxo-2,3-dihydro-1H-benzo[d]imidazol-1-yl)methyl)cyclohexyl)-2-(trifluoromethyl)nicotinamide]
Cc1ccc(-n2c(=O)n(C[C@H]3CC[C@H](NC(=O)c4cc(Cl)cnc4C)CC3)c3cccc(C)c32)cn1 [Example 57, 5-chloro-2-methyl-N-((1r,4r)-4-((4-rrethyl-3-(6-methylpyridin-3-yl)-2-oxo-2,3-dihydro-1H-benzo[d]imidazol-1-yl)methyl)cyclohexyl)nicotinamide]
Cc1ncc(Cl)cc1C(=O)N[C@H]1CC[C@H](Cn2c(=O)n(-c3ccc(OC(F)F)nc3)c3ccccc32)CC1 [Example 97, 5-chloro-N-((1r,4r)-4-((3-(6-(difluoromethoxy)pyridin-3-yl)-2-oxo-2,3-dihydro-1H-benzo[d]imidazol-1-yl)methyl)cyclohexyl)-2-methylnicotinamide]
Cc1ncc(Cl)cc1C(=O)N[C@H]1CC[C@H](Cn2c(=O)n(-c3ccnc(C)c3C)c3ccccc32)CC1 [Example 331, 5-chloro-N-((1r,4r)-4-((3-(2,3-dimethylpyridin-4-yl)-2-oxo-2,3-dihydro-1H-benzo [d]imidazol-1-yl)methyl)cyclohexyl)-2-methylnico-tinamide]
Cc1cn(CCO)c2ncc(-n3c(=O)n(C[C@H]4CC[C@H](NC(=O)c5cc(Cl)cnc5C(F)F)CC4)c4ccccc43)cc12 [Example 731, 5-chloro-2-(difluoromethyl)-N-((1r,4r)-4-((3-(1-(2-hydroxyethyl)-3-methyl-1H-pyrrolo[2,3-b]pyridin-5-yl)-2-oxo-2,3-dihydro-1H-benzo[d]imidazol-1-yl)methyl)cyclohexyl)nicotinamide]
Cc1ncc(Cl)cc1C(=O)N[C@H]1CC[C@H](Cn2c(=O)n(-c3ccc4c(c3)c(C)nn4CCO)c3ccccc32)CC1 [Example 230, 5-chloro-N-((1r,4r)-4-((3-(1-(2-hydroxyethyl)-3-methyl-1H-indazol-5-yl)-2-oxo-2,3-dihydro-1H-benzo[d]imidazol-1-yl)methyl)cyclohexyl)-2-methylnicotinamide]
CNc1ccc(-n2c(=O)n(C[C@H]3CC[C@H](NC(=O)c4cc(Cl)cnc4C(F)(F)F)CC3)c3ccc(F)cc32)cn1 [Example 705, 5-chloro-N-((1r,4r)-4-((5-fluoro-3-(6-(methylamino)pyridin-3-yl)-2-oxo-2,3-dihydro-1H-benzo[d]imidazol-1-yl)methyl)cyclo-hexyl)-2-(trifluoromethyl) nicotinamide]
O=C(N[C@H]1CC[C@H](Cn2c(=O)n(-c3ccc(NC(=O)C4CC4)nc3)c3ccccc32)CC1)c1cc(Cl)cnc1C(F)F [Example 502, 5-chloro-N-((1r,4r)-4-((3-(6-(cyclopropanecarboxa-mido)pyridin-3-yl)-2-oxo-2,3-dihydro-1H-benzo[d]imidazol-1-yl)methyl)cyclohexyl)-2-(difluoro-methyl)nicotinamide]
Cc1ncc(Cl)cc1C(=O)N[C@H]1CC[C@H](Cn2c(=O)n(-c3cc(Br)ccc3C#N)c3ccccc32)CC1 [Example 307, N-((1r,4r)-4-((3-(5-bromo-2-cyanophenyl)-2-oxo-2,3-dihydro-1H-benzo[d]imidazol-1-yl)methyl)cyclohexyl)-5-chloro-2-methylnicotinamide]
Cc1ncc(Cl)cc1C(=O)N[C@H]1CC[C@H](Cn2c(=O)n(-c3ccccc3Cl)c3ncccc32)CC1 [Example 234, 5-chloro-N-((1r,4r)-4-((3-(2-chlorophenyl)-2-oxo-2,3-dihydro-1H-imidazo[4,5-b]pyridin-1-yl)methyl)cyclo-hexyl)-2-methylnicotinamide]
O=C(N[C@H]1CC[C@H](Cn2c(=O)n(-c3ccc(NCCO)nc3)c3ccccc32)CC1)c1cc(Cl)cnc1C(F)F [Example 571, 5-chloro-2-(difluoromethyl)-N-((1r,4r)-4-((3-(6-((2-hydroxyethyl)amino)pyridin-3-yl)-2-oxo-2,3-dihydro-1H-benzo[d]imidazol-1-yl)methyl)cyclohexyl)nicotinamide]
Cc1ncc(Cl)cc1C(=O)N[C@H]1CC[C@H](Cn2c(=O)n(-c3ccc(OC[C@@H](C)O)nc3)c3ccccc32)CC1 [Example 438, 5-chloro-N-((1R,4r)-4-((3-(6-((R)-2-hydroxypropoxy)pyridin-3-yl)-2-oxo-2,3-dihydro-1H-benzo[d]imidazol-1-yl)methyl)cyclohexyl)-2-methylnicotinamide]
O=C(N[C@H]1CC[C@H](Cn2c(=O)n(-c3cnc(OCCO)cn3)c3ccccc32)CC1)c1cc(Cl)cnc1C(F)F [Example 563, 5-chloro-2-(difluoromethyl)-N-((1r,4r)-4-((3-(5-(2-hydroxyethoxy)pyrazin-2-yl)-2-oxo-2,3-dihydro-1H-benzo[d]imidazol-1-yl)methyl)cyclohexyl)nicotinamide]
O=C(Cn1c(=O)n(C[C@H]2CC[C@H](NC(=O)c3cc(Cl)ccc3Cl)CC2)c2ccccc21)c1ccccc1 [Example 287, 2,5-dichloro-N-((1r,4r)-4-((2-oxo-3-(2-oxo-2-phenylethyl)-2,3-dihydro-1H-benzo[d]imidazol-1-yl)methyl)cyclo-hexyl)benzamide]
O=C(N[C@H]1CC[C@H](Cn2c(=O)n(-c3ccc(OC4COC4)nc3)c3ccccc32)CC1)c1cc(Cl)cnc1C(F)F [Example 478, 5-chloro-2-(difluoromethyl)-N-((1r,4r)-4-((3-(6-(oxetan-3-yloxy)pyridin-3-yl)-2-oxo-2,3-dihydro-1H-benzo[d]imidazol-1-yl)methyl)cyclohexyl)nicotinamide]
Cc1ncc(Cl)cc1C(=O)N[C@H]1CC[C@H](Cn2c(=O)n(-c3cnc4[nH]ccc4c3)c3ccccc32)CC1 [Example 408, 5-chloro-2-methyl-N-((1r,4r)-4-((2-oxo-3-(1H-pyrrolo[2,3-b]pyridin-5-yl)-2,3-dihydro-1H-benzo[d]imidazol-1-yl)methyl)cyclohexyl)nicotinamide]
O=C(N[C@H]1CC[C@H](Cn2c(=O)n(-c3ccc(N4CCNC4=O)nc3)c3ccccc32)CC1)c1cc(Cl)cnc1C(F)F [Example 523, 5-chloro-2-(difluoromethyl)-N-((1r,4r)-4-((2-oxo-3-(6-(2-oxoimidazolidin-1-yl)pyridin-3-yl)-2,3-dihydro-1H-benzo[d]imidazol-1-yl)methyl)cyclohexyl)nicotinamide]
O=C(N[C@H]1CC[C@H](Cn2c(=O)n(-c3cccc(-c4nnco4)c3)c3ccccc32)CC1)c1cc(Cl)cnc1C(F)F [Example 748, N-((1r,4r)-4-((3-(3-(1,3,4-oxadiazol-2-yl)phenyl)-2-oxo-2,3-dihydro-1H-benzo [d]imidazol-1-yl)methyl)cyclohexyl)-5-chloro-2-(difluoromethyl)nicotinamide]
O=C(N[C@H]1CC[C@H](Cn2c(=O)n(CCOc3ccccc3)c3ncccc32)CC1)c1cc(Cl)cnc1C(F)F [Example 458, 5-chloro-2-(difluoromethyl)-N-((1r,4r)-4-((2-oxo-3-(2-phenoxyethyl)-2,3-dihydro-1H-imidazo[4,5-b]pyridin-1-yl)methyl)cyclohexyl) nicotinamide]
